From ChEMBL document CHEMBL3885881, “DrugMatrix”

Species: Rattus norvegicus
Assay: DrugMatrix - Regimen: Daily Repeat
Assay type: toxicity, organism-based, Sprague-Dawley
Parameters: regimen Daily Repeat, gender Male, age 6-8 weeks
Conditions: in vivo, po, route oral GAVAGE, vehicle .5 % CMC; for BASOPHIL / EOSINOPHIL / ERYTHROCYTE COUNT / HEMATOCRIT / HEMOGLOBIN / LEUKOCYTE COUNT / LYMPHOCYTE / MEAN CORPUSCULAR HEMOGLOBIN / MEAN CORPUSCULAR HEMOGLOBIN CONCENTRATION / MEAN CORPUSCULAR VOLUME / MONOCYTE / NEUTROPHIL / PLATELET COUNT: tissue Blood; for ALANINE AMINOTRANSFERASE / ALBUMIN / ALKALINE PHOSPHATASE / ASPARTATE AMINOTRANSFERASE / BLOOD UREA NITROGEN / CHLORIDE / CHOLESTEROL / CREATINE PHOSPHOKINASE / CREATININE / GLUCOSE / PHOSPHORUS / POTASSIUM / SODIUM / TOTAL BILIRUBIN / TOTAL PROTEIN: tissue Plasma
[1] = 0 mg/kg, 72 h, dose level Control, time 3 day
[2] = 0 mg/kg, 120 h, dose level Control, time 5 day
[3] = 1 mg/kg, 72 h, dose level Low, time 3 day
[4] = 1 mg/kg, 120 h, dose level Low, time 5 day
[5] = 22 mg/kg, 72 h, dose level High, time 3 day
[6] = 22 mg/kg, 120 h, dose level High, time 5 day

SMILES: N=C(N)NC(=O)c1nc(Cl)c(N)nc1N [AMILORIDE]
- BASOPHIL [1]: 0%
- EOSINOPHIL [1]: 0.33%
- ERYTHROCYTE COUNT [1]: 6.2 x10E6/uL
- HEMATOCRIT [1]: 38.08%
- HEMOGLOBIN [1]: 14.92 G/DL
- LEUKOCYTE COUNT [1]: 11.13 x10E3/uL
- LYMPHOCYTE [1]: 76%
- MEAN CORPUSCULAR HEMOGLOBIN [1]: 24.1 pg
- MEAN CORPUSCULAR HEMOGLOBIN CONCENTRATION [1]: 39.17 G/DL
- MEAN CORPUSCULAR VOLUME [1]: 61.48 fL
- MONOCYTE [1]: 3.83%
- NEUTROPHIL [1]: 19.83%
- PLATELET COUNT [1]: 1327.5 x10E3/uL
- ALANINE AMINOTRANSFERASE [1]: 40.17 u/L
- ALBUMIN [1]: 4.07 G/DL
- ALKALINE PHOSPHATASE [1]: 372 u/L
- ASPARTATE AMINOTRANSFERASE [1]: 67.17 u/L
- BLOOD UREA NITROGEN [1]: 18.83 mg/dL
- CHLORIDE [1]: 105.17 MEQ/L
- CHOLESTEROL [1]: 78.17 mg/dL
- CREATINE PHOSPHOKINASE [1]: 149.17 u/L
- CREATININE [1]: 0.57 mg/dL
- GLUCOSE [1]: 185.17 mg/dL
- PHOSPHORUS [1]: 11.43 mg/dL
- POTASSIUM [1]: 6.78 MEQ/L
- SODIUM [1]: 152.83 MEQ/L
- TOTAL BILIRUBIN [1]: 0.4 mg/dL
- TOTAL PROTEIN [1]: 6.87 G/DL
- BASOPHIL [2]: 0%
- EOSINOPHIL [2]: 0%
- ERYTHROCYTE COUNT [2]: 6.05 x10E6/uL
- HEMATOCRIT [2]: 36.55%
- HEMOGLOBIN [2]: 14.7 G/DL
- LEUKOCYTE COUNT [2]: 11.8 x10E3/uL
- LYMPHOCYTE [2]: 86.83%
- MEAN CORPUSCULAR HEMOGLOBIN [2]: 24.37 pg
- MEAN CORPUSCULAR HEMOGLOBIN CONCENTRATION [2]: 40.32 G/DL
- MEAN CORPUSCULAR VOLUME [2]: 60.47 fL
- MONOCYTE [2]: 0.83%
- NEUTROPHIL [2]: 12.33%
- PLATELET COUNT [2]: 1177 x10E3/uL
- ALANINE AMINOTRANSFERASE [2]: 41.83 u/L
- ALBUMIN [2]: 3.75 G/DL
- ALKALINE PHOSPHATASE [2]: 377.5 u/L
- ASPARTATE AMINOTRANSFERASE [2]: 60.83 u/L
- BLOOD UREA NITROGEN [2]: 16 mg/dL
- CHLORIDE [2]: 105.67 MEQ/L
- CHOLESTEROL [2]: 67.83 mg/dL
- CREATINE PHOSPHOKINASE [2]: 120.33 u/L
- CREATININE [2]: 0.6 mg/dL
- GLUCOSE [2]: 167.67 mg/dL
- PHOSPHORUS [2]: 10.03 mg/dL
- POTASSIUM [2]: 6.68 MEQ/L
- SODIUM [2]: 150.5 MEQ/L
- TOTAL BILIRUBIN [2]: 0.57 mg/dL
- TOTAL PROTEIN [2]: 6.25 G/DL
- BASOPHIL [3]: 0%
- EOSINOPHIL [3]: 1.33%
- ERYTHROCYTE COUNT [3]: 6.13 x10E6/uL
- HEMATOCRIT [3]: 37.63%
- HEMOGLOBIN [3]: 14.93 G/DL
- LEUKOCYTE COUNT [3]: 12.73 x10E3/uL
- LYMPHOCYTE [3]: 84%
- MEAN CORPUSCULAR HEMOGLOBIN [3]: 24.37 pg
- MEAN CORPUSCULAR HEMOGLOBIN CONCENTRATION [3]: 39.67 G/DL
- MEAN CORPUSCULAR VOLUME [3]: 61.4 fL
- MONOCYTE [3]: 0.67%
- NEUTROPHIL [3]: 14%
- PLATELET COUNT [3]: 1265 x10E3/uL
- ALANINE AMINOTRANSFERASE [3]: 50 u/L
- ALBUMIN [3]: 3.87 G/DL
- ALKALINE PHOSPHATASE [3]: 414 u/L
- ASPARTATE AMINOTRANSFERASE [3]: 63.67 u/L
- BLOOD UREA NITROGEN [3]: 15.67 mg/dL
- CHLORIDE [3]: 107 MEQ/L
- CHOLESTEROL [3]: 81.33 mg/dL
- CREATINE PHOSPHOKINASE [3]: 135.67 u/L
- CREATININE [3]: 0.57 mg/dL
- GLUCOSE [3]: 168.67 mg/dL
- PHOSPHORUS [3]: 10.33 mg/dL
- POTASSIUM [3]: 6.13 MEQ/L
- SODIUM [3]: 152.33 MEQ/L
- TOTAL BILIRUBIN [3]: 0.43 mg/dL
- TOTAL PROTEIN [3]: 6.37 G/DL
- BASOPHIL [4]: 0%
- EOSINOPHIL [4]: 0%
- ERYTHROCYTE COUNT [4]: 5.82 x10E6/uL
- HEMATOCRIT [4]: 35.67%
- HEMOGLOBIN [4]: 14.2 G/DL
- LEUKOCYTE COUNT [4]: 12.4 x10E3/uL
- LYMPHOCYTE [4]: 85.33%
- MEAN CORPUSCULAR HEMOGLOBIN [4]: 24.43 pg
- MEAN CORPUSCULAR HEMOGLOBIN CONCENTRATION [4]: 39.93 G/DL
- MEAN CORPUSCULAR VOLUME [4]: 61.3 fL
- MONOCYTE [4]: 2%
- NEUTROPHIL [4]: 12.67%
- PLATELET COUNT [4]: 1224 x10E3/uL
- ALANINE AMINOTRANSFERASE [4]: 35.33 u/L
- ALBUMIN [4]: 3.67 G/DL
- ALKALINE PHOSPHATASE [4]: 386.67 u/L
- ASPARTATE AMINOTRANSFERASE [4]: 62 u/L
- BLOOD UREA NITROGEN [4]: 15 mg/dL
- CHLORIDE [4]: 105.33 MEQ/L
- CHOLESTEROL [4]: 74 mg/dL
- CREATINE PHOSPHOKINASE [4]: 130.33 u/L
- CREATININE [4]: 0.63 mg/dL
- GLUCOSE [4]: 171 mg/dL
- PHOSPHORUS [4]: 10.63 mg/dL
- POTASSIUM [4]: 6.7 MEQ/L
- SODIUM [4]: 150 MEQ/L
- TOTAL BILIRUBIN [4]: 0.5 mg/dL
- TOTAL PROTEIN [4]: 6.1 G/DL
- BASOPHIL [5]: 0%
- EOSINOPHIL [5]: 1%
- ERYTHROCYTE COUNT [5]: 5.75 x10E6/uL
- HEMATOCRIT [5]: 35.27%
- HEMOGLOBIN [5]: 13.6 G/DL
- LEUKOCYTE COUNT [5]: 10.47 x10E3/uL
- LYMPHOCYTE [5]: 85%
- MEAN CORPUSCULAR HEMOGLOBIN [5]: 23.63 pg
- MEAN CORPUSCULAR HEMOGLOBIN CONCENTRATION [5]: 38.63 G/DL
- MEAN CORPUSCULAR VOLUME [5]: 61.17 fL
- MONOCYTE [5]: 1.33%
- NEUTROPHIL [5]: 12.67%
- PLATELET COUNT [5]: 1066.33 x10E3/uL
- ALANINE AMINOTRANSFERASE [5]: 46 u/L
- ALBUMIN [5]: 4.03 G/DL
- ALKALINE PHOSPHATASE [5]: 373.67 u/L
- ASPARTATE AMINOTRANSFERASE [5]: 68.33 u/L
- BLOOD UREA NITROGEN [5]: 23.33 mg/dL
- CHLORIDE [5]: 102.67 MEQ/L
- CHOLESTEROL [5]: 70 mg/dL
- CREATINE PHOSPHOKINASE [5]: 117 u/L
- CREATININE [5]: 0.7 mg/dL
- GLUCOSE [5]: 167 mg/dL
- PHOSPHORUS [5]: 11.37 mg/dL
- POTASSIUM [5]: 7.33 MEQ/L
- SODIUM [5]: 146 MEQ/L
- TOTAL BILIRUBIN [5]: 0.57 mg/dL
- TOTAL PROTEIN [5]: 6.63 G/DL
- BASOPHIL [6]: 0%
- EOSINOPHIL [6]: 0%
- ERYTHROCYTE COUNT [6]: 6.16 x10E6/uL
- HEMATOCRIT [6]: 36.37%
- HEMOGLOBIN [6]: 14.6 G/DL
- LEUKOCYTE COUNT [6]: 18.57 x10E3/uL
- LYMPHOCYTE [6]: 86%
- MEAN CORPUSCULAR HEMOGLOBIN [6]: 23.73 pg
- MEAN CORPUSCULAR HEMOGLOBIN CONCENTRATION [6]: 40.17 G/DL
- MEAN CORPUSCULAR VOLUME [6]: 59.03 fL
- MONOCYTE [6]: 1.33%
- NEUTROPHIL [6]: 11.67%
- PLATELET COUNT [6]: 1100.67 x10E3/uL
- ALANINE AMINOTRANSFERASE [6]: 47.33 u/L
- ALBUMIN [6]: 3.77 G/DL
- ALKALINE PHOSPHATASE [6]: 450.67 u/L
- ASPARTATE AMINOTRANSFERASE [6]: 62 u/L
- BLOOD UREA NITROGEN [6]: 22.33 mg/dL
- CHLORIDE [6]: 104.67 MEQ/L
- CHOLESTEROL [6]: 76 mg/dL
- CREATINE PHOSPHOKINASE [6]: 128.33 u/L
- CREATININE [6]: 0.63 mg/dL
- GLUCOSE [6]: 167.67 mg/dL
- PHOSPHORUS [6]: 10.73 mg/dL
- POTASSIUM [6]: 6.83 MEQ/L
- SODIUM [6]: 148.33 MEQ/L
- TOTAL BILIRUBIN [6]: 0.47 mg/dL
- TOTAL PROTEIN [6]: 6.07 G/DL
